Measurements: the kinase profiling compilation of Christmann-Franck et al. (2016)

How the values were obtained:
Experiment in all cases: radiometric filter-binding kinase assay
MAPK3 (human) = MAPK3 (human) (UniProt P27361); conditions: compound 0.1 µM
DYRK1A (human) = DYRK1A (human) (UniProt Q13627); conditions: compound 0.1 µM
ROCK2 (rat) = conditions: compound 0.1 µM; accession and sequence are those of the human protein
MAPK12 (human) = MAPK12 (human) (UniProt P53778); conditions: compound 0.1 µM
PLK1 (human) = PLK1 (human) (UniProt P53350); conditions: compound 0.1 µM
[1] = tested on: SGK1 (human), O00141 [S422D]; conditions: compound 0.1 µM
PIM3 (human) = PIM3 (human) (UniProt Q86V86); conditions: compound 0.1 µM
DAPK1 (human) = DAPK1 (human) (UniProt P53355); conditions: compound 0.1 µM
NTRK1 (human) = NTRK1 (human) (UniProt P04629); conditions: compound 0.1 µM
PIM2 (human) = PIM2 (human) (UniProt Q9P1W9); conditions: compound 0.1 µM
[2] = tested on: RPS6KB1 (human), P23443 [T412E]; conditions: compound 0.1 µM
PIM1 (human) = PIM1 (human) (UniProt P11309); conditions: compound 0.1 µM
PAK4 (human) = PAK4 (human) (UniProt O96013); conditions: compound 0.1 µM
MKNK2 (human) = MKNK2 (human) (UniProt Q9HBH9); conditions: compound 0.1 µM
MAPKAPK3 (human) = MAPKAPK3 (human) (UniProt Q16644); conditions: compound 0.1 µM
MAPK8 (human) = MAPK8 (human) (UniProt P45983); conditions: compound 0.1 µM
IRAK4 (human) = IRAK4 (human) (UniProt Q9NWZ3); conditions: compound 0.1 µM
MAP3K11 (human) = MAP3K11 (human) (UniProt Q16584); conditions: compound 0.1 µM
TBK1 (human) = TBK1 (human) (UniProt Q9UHD2); conditions: compound 0.1 µM
IKBKB (human) = IKBKB (human) (UniProt O14920); conditions: compound 0.1 µM
CLK2 (human) = CLK2 (human) (UniProt P49760); conditions: compound 0.1 µM
MAPK11 (human) = MAPK11 (human) (UniProt Q15759); conditions: compound 0.1 µM
MAP3K7 TAB1 (human) = MAP3K7 TAB1 (human) (UniProt Q15750+O43318); conditions: compound 0.1 µM
DYRK3 (human) = DYRK3 (human) (UniProt O43781); conditions: compound 0.1 µM
CSNK2A1 (human) = CSNK2A1 (human) (UniProt P68400); conditions: compound 0.1 µM
MAPK14 (human) = MAPK14 (human) (UniProt Q16539); conditions: compound 0.1 µM
[3] = tested on: AKT1 (human), P31749 [S473D]; conditions: compound 0.1 µM
STK3 (human) = STK3 (human) (UniProt Q13188); conditions: compound 0.1 µM
BRSK2 (human) = BRSK2 (human) (UniProt Q8IWQ3); conditions: compound 0.1 µM
MAP2K6 (human) = MAP2K6 (human) (UniProt P52564); conditions: compound 0.1 µM
EPHB3 (human) = EPHB3 (human) (UniProt P54753); conditions: compound 0.1 µM
IKBKE (human) = IKBKE (human) (UniProt Q14164); conditions: compound 0.1 µM

MAPK14 (human), sequence (Q16539 whole entry, looked up): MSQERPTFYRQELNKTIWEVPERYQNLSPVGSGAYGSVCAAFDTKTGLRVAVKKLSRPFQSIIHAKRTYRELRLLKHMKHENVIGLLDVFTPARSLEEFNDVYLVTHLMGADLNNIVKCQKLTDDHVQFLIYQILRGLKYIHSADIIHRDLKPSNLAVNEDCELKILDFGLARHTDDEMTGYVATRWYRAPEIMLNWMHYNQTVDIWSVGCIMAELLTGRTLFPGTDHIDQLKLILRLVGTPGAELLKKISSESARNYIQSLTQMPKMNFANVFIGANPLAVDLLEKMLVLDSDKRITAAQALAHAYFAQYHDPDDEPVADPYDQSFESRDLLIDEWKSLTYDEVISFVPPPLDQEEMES
BRSK2 (human), sequence (Q8IWQ3 whole entry, looked up): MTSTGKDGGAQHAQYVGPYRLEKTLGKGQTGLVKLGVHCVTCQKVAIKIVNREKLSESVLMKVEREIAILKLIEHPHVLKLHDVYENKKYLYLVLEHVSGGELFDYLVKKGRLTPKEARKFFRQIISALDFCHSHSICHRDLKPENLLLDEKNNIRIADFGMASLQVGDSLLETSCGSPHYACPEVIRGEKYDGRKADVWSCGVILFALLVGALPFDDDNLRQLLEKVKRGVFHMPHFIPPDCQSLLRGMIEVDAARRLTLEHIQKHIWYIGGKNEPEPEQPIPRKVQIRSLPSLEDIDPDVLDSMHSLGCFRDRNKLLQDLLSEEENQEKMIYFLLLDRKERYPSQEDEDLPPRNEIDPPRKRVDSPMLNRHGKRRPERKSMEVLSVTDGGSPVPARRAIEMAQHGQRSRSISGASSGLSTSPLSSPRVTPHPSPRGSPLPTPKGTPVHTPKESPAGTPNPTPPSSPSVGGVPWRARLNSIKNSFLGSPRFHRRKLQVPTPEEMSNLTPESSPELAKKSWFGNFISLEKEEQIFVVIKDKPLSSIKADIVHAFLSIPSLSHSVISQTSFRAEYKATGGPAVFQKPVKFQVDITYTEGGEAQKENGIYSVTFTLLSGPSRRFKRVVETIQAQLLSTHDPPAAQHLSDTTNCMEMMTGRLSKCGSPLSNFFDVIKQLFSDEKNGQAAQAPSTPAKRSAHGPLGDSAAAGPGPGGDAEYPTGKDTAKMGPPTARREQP
MAPK12 (human), sequence (P53778 whole entry, looked up): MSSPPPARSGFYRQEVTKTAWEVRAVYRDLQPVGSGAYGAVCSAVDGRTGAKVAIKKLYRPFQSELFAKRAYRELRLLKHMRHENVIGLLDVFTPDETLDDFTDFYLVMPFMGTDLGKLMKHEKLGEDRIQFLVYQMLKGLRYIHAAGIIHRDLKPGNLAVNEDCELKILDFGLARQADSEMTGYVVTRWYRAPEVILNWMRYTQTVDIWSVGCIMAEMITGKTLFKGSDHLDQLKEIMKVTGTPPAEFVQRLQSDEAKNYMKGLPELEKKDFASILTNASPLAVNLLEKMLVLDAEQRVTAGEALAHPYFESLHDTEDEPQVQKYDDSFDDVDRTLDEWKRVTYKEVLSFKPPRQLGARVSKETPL
CLK2 (human), sequence (P49760 whole entry, looked up): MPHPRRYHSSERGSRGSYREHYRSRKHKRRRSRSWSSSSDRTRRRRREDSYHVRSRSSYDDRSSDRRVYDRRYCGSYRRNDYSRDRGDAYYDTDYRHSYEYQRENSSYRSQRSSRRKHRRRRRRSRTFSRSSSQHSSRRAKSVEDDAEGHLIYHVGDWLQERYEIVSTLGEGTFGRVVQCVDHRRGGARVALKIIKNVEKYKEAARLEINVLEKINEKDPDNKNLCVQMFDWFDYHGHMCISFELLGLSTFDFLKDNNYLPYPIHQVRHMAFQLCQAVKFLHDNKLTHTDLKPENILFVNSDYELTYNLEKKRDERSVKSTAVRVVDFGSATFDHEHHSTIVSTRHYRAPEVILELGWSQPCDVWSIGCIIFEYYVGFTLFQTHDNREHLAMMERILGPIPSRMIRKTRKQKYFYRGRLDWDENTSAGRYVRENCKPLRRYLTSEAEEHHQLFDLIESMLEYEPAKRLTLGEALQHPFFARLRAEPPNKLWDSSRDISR
MAP3K11 (human), sequence (Q16584 whole entry, looked up): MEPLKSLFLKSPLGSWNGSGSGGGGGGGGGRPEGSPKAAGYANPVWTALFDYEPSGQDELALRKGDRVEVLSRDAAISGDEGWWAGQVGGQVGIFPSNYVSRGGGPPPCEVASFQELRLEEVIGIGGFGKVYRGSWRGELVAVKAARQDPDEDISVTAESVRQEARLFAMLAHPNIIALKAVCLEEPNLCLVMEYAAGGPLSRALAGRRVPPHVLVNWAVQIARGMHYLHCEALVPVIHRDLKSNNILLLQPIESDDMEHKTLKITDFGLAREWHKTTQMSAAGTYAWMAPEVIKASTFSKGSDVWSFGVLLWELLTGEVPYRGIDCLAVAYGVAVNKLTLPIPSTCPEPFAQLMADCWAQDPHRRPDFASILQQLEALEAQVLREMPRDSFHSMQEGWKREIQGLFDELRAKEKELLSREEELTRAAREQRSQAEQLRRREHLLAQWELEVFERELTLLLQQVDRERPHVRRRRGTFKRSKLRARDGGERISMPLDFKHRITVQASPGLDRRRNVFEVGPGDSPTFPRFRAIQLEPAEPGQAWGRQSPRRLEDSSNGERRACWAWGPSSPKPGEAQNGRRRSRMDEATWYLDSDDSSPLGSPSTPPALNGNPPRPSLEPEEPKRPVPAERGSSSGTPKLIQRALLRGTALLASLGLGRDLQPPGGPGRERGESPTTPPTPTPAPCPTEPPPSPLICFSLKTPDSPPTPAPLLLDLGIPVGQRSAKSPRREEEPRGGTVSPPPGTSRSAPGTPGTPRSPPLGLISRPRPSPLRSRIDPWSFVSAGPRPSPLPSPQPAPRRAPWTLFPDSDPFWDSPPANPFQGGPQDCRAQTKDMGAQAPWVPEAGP
PAK4 (human), sequence (O96013 whole entry, looked up): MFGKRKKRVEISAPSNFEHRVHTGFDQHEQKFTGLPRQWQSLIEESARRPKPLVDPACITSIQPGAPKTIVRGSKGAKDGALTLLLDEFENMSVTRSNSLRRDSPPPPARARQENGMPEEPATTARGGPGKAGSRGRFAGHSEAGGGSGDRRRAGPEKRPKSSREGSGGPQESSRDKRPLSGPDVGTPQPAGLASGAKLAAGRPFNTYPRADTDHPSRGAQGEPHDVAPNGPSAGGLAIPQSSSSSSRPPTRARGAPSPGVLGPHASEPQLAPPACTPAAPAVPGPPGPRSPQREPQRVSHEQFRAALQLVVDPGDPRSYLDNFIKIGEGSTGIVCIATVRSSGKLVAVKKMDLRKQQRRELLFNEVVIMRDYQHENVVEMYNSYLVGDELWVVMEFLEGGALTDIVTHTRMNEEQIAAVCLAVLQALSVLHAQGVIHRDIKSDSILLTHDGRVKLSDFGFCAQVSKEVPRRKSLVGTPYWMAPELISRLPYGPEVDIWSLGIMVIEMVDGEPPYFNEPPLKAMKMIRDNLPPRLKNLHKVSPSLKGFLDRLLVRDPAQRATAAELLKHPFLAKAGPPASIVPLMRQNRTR
MAP3K7 TAB1 (human), sequence (O43318 whole entry, looked up): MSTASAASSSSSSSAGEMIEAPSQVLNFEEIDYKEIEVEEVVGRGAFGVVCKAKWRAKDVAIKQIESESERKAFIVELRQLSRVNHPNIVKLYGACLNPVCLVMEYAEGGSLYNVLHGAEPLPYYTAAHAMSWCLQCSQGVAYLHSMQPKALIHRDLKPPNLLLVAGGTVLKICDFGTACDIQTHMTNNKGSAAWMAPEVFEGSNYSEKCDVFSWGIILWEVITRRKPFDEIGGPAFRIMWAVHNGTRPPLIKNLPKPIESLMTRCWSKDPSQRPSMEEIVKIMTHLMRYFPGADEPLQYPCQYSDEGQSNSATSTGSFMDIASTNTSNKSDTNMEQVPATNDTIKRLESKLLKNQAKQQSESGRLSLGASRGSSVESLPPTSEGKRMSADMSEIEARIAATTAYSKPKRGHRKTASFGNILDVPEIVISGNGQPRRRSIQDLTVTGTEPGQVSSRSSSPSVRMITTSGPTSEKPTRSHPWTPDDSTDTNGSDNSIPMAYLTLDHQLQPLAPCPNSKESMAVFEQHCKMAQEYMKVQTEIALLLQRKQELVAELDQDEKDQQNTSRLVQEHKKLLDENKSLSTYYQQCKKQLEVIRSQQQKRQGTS
MAP3K7 TAB1 (human), sequence (Q15750 whole entry, looked up): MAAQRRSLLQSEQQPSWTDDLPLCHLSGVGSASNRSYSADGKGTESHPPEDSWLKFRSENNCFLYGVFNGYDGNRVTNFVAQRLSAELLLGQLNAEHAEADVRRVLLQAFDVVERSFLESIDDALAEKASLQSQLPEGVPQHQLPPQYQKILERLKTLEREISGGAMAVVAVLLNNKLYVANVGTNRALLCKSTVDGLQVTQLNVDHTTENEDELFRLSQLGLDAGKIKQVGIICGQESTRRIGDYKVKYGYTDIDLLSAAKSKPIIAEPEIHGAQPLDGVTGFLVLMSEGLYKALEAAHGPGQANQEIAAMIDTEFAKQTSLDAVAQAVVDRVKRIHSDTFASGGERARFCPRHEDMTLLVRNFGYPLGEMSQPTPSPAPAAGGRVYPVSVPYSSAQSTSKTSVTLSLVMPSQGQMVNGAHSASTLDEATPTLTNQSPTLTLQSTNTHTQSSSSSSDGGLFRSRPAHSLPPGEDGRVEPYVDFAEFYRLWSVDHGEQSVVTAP

CN1CCN(CCOc2cc(OC3CCOCC3)c3c(Nc4c(Cl)ccc5c4OCO5)ncnc3c2)CC1
residual activity (MAPK3 (human)): 93%
residual activity (DYRK1A (human)): 94%
residual activity (ROCK2 (rat)): 111%
residual activity (MAPK12 (human)): 94%
residual activity (PLK1 (human)): 96%
residual activity [1]: 112%
residual activity (PIM3 (human)): 111%
residual activity (DAPK1 (human)): 82%
residual activity (NTRK1 (human)): 93%
residual activity (PIM2 (human)): 105%
residual activity [2]: 93%
residual activity (PIM1 (human)): 116%
residual activity (PAK4 (human)): 99%
residual activity (MKNK2 (human)): 110%
residual activity (MAPKAPK3 (human)): 92%
residual activity (MAPK8 (human)): 97%
residual activity (IRAK4 (human)): 100%
residual activity (MAP3K11 (human)): 85%
residual activity (TBK1 (human)): 103%
residual activity (IKBKB (human)): 119%
residual activity (CLK2 (human)): 111%
residual activity (MAPK11 (human)): 85%
residual activity (MAP3K7 TAB1 (human)): 115%
residual activity (DYRK3 (human)): 114%
residual activity (CSNK2A1 (human)): 112%
residual activity (MAPK14 (human)): 108%
residual activity [3]: 99%
residual activity (STK3 (human)): 102%
residual activity (BRSK2 (human)): 96%
residual activity (MAP2K6 (human)): 100%
residual activity (EPHB3 (human)): 89%
residual activity (IKBKE (human)): 88%
